Data reported in US20250136581A1, “SUBSTITUTED TRIAZOLE DERIVATIVE, PREPARATION METHOD THEREFOR, PHARMACEUTICAL COMPOSITION THEREOF, AND USE THEREOF” (SHANGHAI SIMR BIOTECHNOLOGY CO., LTD., priority 2021, published 2025).
Read-outs that look alike come from different tables or passages of the source. One block for each compound: values may come before it.

How the values were obtained:
[1] = biological target: human α5β3γ2 receptors (α5-GABAA receptor) (Homo sapiens (Human), UniProt P18507+P31644); experiment: 3H-flunitrazepam competition binding, human α5β3γ2 GABAA receptor; settings: HEK293 cell membranes, 1 nM 3H-flunitrazepam
Procedure, shortened: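 Radioligand displacement of 1 nM 3H-flunitrazepam from membranes of HEK293 lines stably expressing the human subtypes, 1 h at room temperature, compound in 8-point 4-fold series. Bound label on GF/C filters counted by scintillation; Ki derived from fitted IC50, with flumazenil as low control.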

[2] = biological target: α5-GABAA receptor (α5, β3, γ2 subunits) (Homo sapiens (Human), UniProt P18507+P31644); experiment: Whole cell patch clamp, inverse agonist efficacy in HEK293 cells expressing α5-GABAA receptor; format: cell-based; settings: HEK293, drug 100 nM, GABA 0.05 μM, −60 mV; read-out: Compound inverse agonist efficacy %
Excerpt: The inventors used electrophysiological methods to determine the inverse agonist efficacy of the drugs to be tested on the α5-GABAA receptor. The detailed methods are as follows:
Different subunits of the GABAA receptor were co-expressed in the HEK293 cell line to construct a fully functional GABAA receptor. The α, β, and γ subunits are essential to form a complete functional GABAA receptor. In this example, the present disclosure had established the following cell model: α5 subunit (see GenBank Accession No.: NM_000810.3 for protein sequences), β3 subunit (see GenBank Accession No.: NM_000814.5 for protein sequences), and γ2 subunit (see GenBank Accession No.: NM_000816.3 for protein sequences) were co-expressed in the HEK293 cell line, followed by screening the monoclonal stably transfected cell line. This cell line expressed a fully functional α5-GABAA receptor.
The monoclonal stably transfected HEK293 cell line expressing α5-GABAA receptor were cultured in 10 cm culture dishes and passaged when the cells grew to 80% to 90% confluent. During passaging, the culture medium was aspirated first, then 3 mL of DPBS phosphate buffer salt (Gibco™) was added to the culture dishes, and the culture dishes were shaken slightly, and DPBS was aspirated. 1 mL of trypsin (TrypLE Express, Gibco™) was added thereto, and the cells were digested at 37° C. for 1-2 minutes. Then 3 mL of complete medium (DMEM+10% FBS (Gibco™)) was added and the cells at the bottom of the culture dishes were dispersed. The cell suspension was transferred to a 15 mL centrifugal tube (Corning) and then centrifuged at 200 g for 3 minutes. The supernatant was discarded, 4 mL of complete medium was added, and the cells were gently blown and resuspended for use. If cell passaging was performed, the cell suspension was diluted at a ratio of 1:5 or 1:10. If cells for electrophysiological detection were prepared, the cell suspension was diluted in a ratio of 1:12, then added into a 24-well dish (Corning™) in which glass slides were placed and pretreated with Poly-D-Lysine, and the experiment was carried out after the cells adhered to the wall. The cells used for electrophysiology was cultured no more than 48 hours.
Drug concentration setting: The final drug concentration used in drug screening was 100 nM, and the GABA concentration was 0.05 μM. The whole cell patch clamp technique was used in electrophysiological assays, which could refer to the literature (I. Lecker, Y. Yin, D. S. Wang and B. A. Orser, British Journal of Anaesthesia, 2013, 110 (Si), i73-i81). The compositions of the extracellular solution for electrophysiology assay were as follows: 150 mM NaCl, 5 mM KCl, 2.5 mM CaCl2, 1 mM MgCl2, 10 mM HEPES, and 10 mM glucose (pH 7.4); the formulation of the electrode internal fluid for electrophysiology use was as follows: 140 mM CsCl, 11 mM EGTA, 10 mM HEPES, 2 mM CaCl2, 1 mM MgCl2, 4 mM MgATP, and 2 mM TEA (pH 7.3). The signal acquisition used an EPC-10 amplifier and the PatchMaster software (HEKA) or Axon700B amplifier and Clampex software (AXON). The recording electrode was pulled from borosilicate glass, and the electrode resistance was 4 to 6 MQ. The ALA-VC-8PG™ system was used for drug application. Single cell that grew independently was selected for recording. During recording, the cell membrane potential was clamped at −60 mV. During experiment, an extracellular solution was applied outside the cells for about 20 seconds. When the baseline reached to a stable state, the extracellular solution was switched to the GABA solution to induce an inward current. After about 20 to 40 seconds until the current was stable, the solution was switched to a corresponding drug solution to detect the effect of the drug. At last, the solution was switched to the extracellular solution, and the experiment was terminated when the baseline returned to the level before drug application. […]

SMILES: Cc1nnn(-c2ccc(C(F)F)cc2)c1COc1ccc(N2CCN(CCO)C(=O)C2)nn1 [Example 59, 4-(6-((1-(4-(Difluoromethyl)phenyl)-4-methyl-1H-1,2,3-triazol-5-yl)methoxy)pyridazin-3-yl)-1-(2-hydroxyethyl)piperazin-2-one]
Ki ([1]; read-out: α5-GABAAR Ki): 3.97 nM
inhibition at 0.1 µM [2]: 44.9%

SMILES: Cc1nnn(-c2ccc(C(F)F)cc2)c1COc1ccc(N2CCN(CC(F)(F)F)C(=O)C2)nn1 [Example 62, 4-(6-((1-(4-(Difluoromethyl)phenyl)-4-methyl-1H-1,2,3-triazol-5-yl)methoxy)pyridazin-3-yl)-1-(2,2,2-trifluoroethyl)piperazin-2-one]
Ki ([1]; read-out: α5-GABAAR Ki): 1.18 nM
inhibition at 0.1 µM [2]: 44.6%

SMILES: Cc1nnn(-c2ccc(C(F)F)cc2)c1COc1ccc(N2CCN3C(=O)CNC(=O)[C@H]3C2)nn1 [Example 65, (R)-8-(6-((1-(4-(Difluoromethyl)phenyl)-4-methyl-1H-1,2,3-triazol-5-yl)methoxy)pyridazin-3-yl)hexahydro-1H-pyrazino[1,2-a]pyrazine-1,4(6H)-dione]
Ki ([1]; read-out: α5-GABAAR Ki): 2.37 nM
inhibition at 0.1 µM [2]: 56.1%

SMILES: Cc1nnn(-c2ccc(C(F)F)cc2)c1COc1ccc(N2CC(CO)OC2=O)nn1 (centres unmarked) [Example 66, 3-(6-((1-(4-(Difluoromethyl)phenyl)-4-methyl-1H-1,2,3-triazol-5-yl)methoxy)pyridazin-3-yl)-5-(hydroxymethyl)oxazolidin-2-one]
Ki ([1]; read-out: α5-GABAAR Ki): 4.07 nM
inhibition at 0.1 µM [2]: 52.7%

SMILES: Cc1nnn(-c2ccc(F)cn2)c1COc1ccc(N2CCNC(=O)C2)nn1 [Example 73, 4-(6-((1-(5-Fluoropyridin-2-yl)-4-methyl-1H-1,2,3-triazol-5-yl)methoxy)pyridazin-3-yl)piperazin-2-one]
Ki ([1]; read-out: α5-GABAAR Ki): 4.93 nM
inhibition at 0.1 µM [2]: 41.3%

SMILES: Cc1nnn(-c2ccc(C(F)F)cc2)c1COc1ccc(N2CCN(CC3CC3)C(=O)C2)nn1 [Example 97, 1-(Cyclopropylmethyl)-4-(6-((1-(4-(difluoromethyl)phenyl)-4-methyl-1H-1,2,3-triazol-5-yl)methoxy)pyridazin-3-yl)piperazin-2-one]
Ki ([1]; α5-GABAAR Ki): 1.11 nM
inhibition at 0.1 µM [2]: 49.2%

SMILES: Cc1nnn(-c2ccc(C(F)F)cc2)c1COc1ccc(N2CCN(CC#N)C(=O)C2)nn1 [Example 99, 2-(4-(6-((1-(4-(Difluoromethyl)phenyl)-4-methyl-1H-1,2,3-triazol-5-yl)methoxy)pyridazin-3-yl)-2-oxopiperazin-1-yl)acetonitrile]
Ki ([1]; read-out: α5-GABAAR Ki): 1.95 nM
inhibition at 0.1 µM [2]: 48%

SMILES: Cc1nnn(-c2ccc(C(F)F)cc2)c1COc1ccc(N2CCN3CCN(C)C(=O)[C@@H]3C2)nn1 [Example 107, (S)-8-(6-((1-(4-(Difluoromethyl)phenyl)-4-methyl-1H-1,2,3-triazol-5-yl)methoxy)pyridazin-3-yl)-2-methyloctahydro-1H-pyrazino[1,2-a]pyrazin-1-one]
Ki ([1]; read-out: α5-GABAAR Ki): 15.6 nM
inhibition at 0.1 µM [2]: 49.2%

SMILES: Cc1nnn(-c2ccc(C(F)F)cc2)c1COc1ccc(N2CCN(CCN3CCC(F)(F)C3)C(=O)C2)nn1 [Example 110, 4-(6-((1-(4-(Difluoromethyl)phenyl)-4-methyl-1H-1,2,3-triazol-5-yl)methoxy)pyridazin-3-yl)-1-(2-(3,3-difluoropyrrolidin-1-yl)ethyl)piperazin-2-one]
Ki ([1]; read-out: α5-GABAAR Ki): 1.6 nM
inhibition at 0.1 µM [2]: 47.5%

SMILES: Cc1nnn(-c2ccc(C(F)F)cc2)c1COc1ccc(N2CCN(c3ccncc3)C(=O)C2)nn1 [Example 114, 4-(6-((1-(4-(Difluoromethyl)phenyl)-4-methyl-1H-1,2,3-triazol-5-yl)methoxy)pyridazin-3-yl)-1-(pyridin-pyridin-4-yl)piperazin-2-one]
Ki ([1]; read-out: α5-GABAAR Ki): 2.82 nM
inhibition at 0.1 µM [2]: 51.3%

More lines, in order of falling Ki ([1]; read-out: α5-GABAAR Ki), values ahead:

Ki ([1]; read-out: α5-GABAAR Ki): 1.54 nM
inhibition at 0.1 µM [2]: 54.6%
SMILES: Cc1nnn(-c2ccc(C(F)F)cc2)c1COc1ccc(N2CCN(CC3COC3)C(=O)C2)nn1 [Example 100, 4-(6-((1-(4-(Difluoromethyl)phenyl)-4-methyl-1H-1,2,3-triazol-5-yl)methoxy)pyridazin-3-yl)-1-(oxetan-3-ylmethyl)piperazin-2-one]

Ki ([1]; read-out: α5-GABAAR Ki): 1.53 nM
inhibition at 0.1 µM [2]: 53.7%
SMILES: Cc1nnn(-c2ccc(C(F)F)cc2)c1COc1ccc(N2CCN(CC3CCOC3)C(=O)C2)nn1 (centres unmarked) [Example 98, 4-(6-((1-(4-(Difluoromethyl)phenyl)-4-methyl-1H-1,2,3-triazol-5-yl)methoxy)pyridazin-3-yl)-1-((tetrahydrofuran-3-yl)methyl)piperazin-2-one]

Ki ([1]; read-out: α5-GABAAR Ki): 1.45 nM
inhibition at 0.1 µM [2]: 41.1%
SMILES: CNS(=O)(=O)C1CCN(c2ccc(OCc3c(C)nnn3-c3ccc(C(F)F)cc3)nn2)C1 (centres unmarked) [Example 64, 1-(6-((1-(4-(Difluoromethyl)phenyl)-4-methyl-1H-1,2,3-triazol-5-yl)methoxy)pyridazin-3-yl)-N-methylpyrrolidine-3-sulfonamide]

Ki ([1]; read-out: α5-GABAAR Ki): 1.34 nM
inhibition at 0.1 µM [2]: 46.5%
SMILES: Cc1nnn(-c2ccc(C(F)F)cc2)c1COc1ccc(N2CCN(CC3CCCO3)C(=O)C2)nn1 (centres unmarked) [Example 96, 4-(6-((1-(4-(Difluoromethyl)phenyl)-4-methyl-1H-1,2,3-triazol-5-yl)methoxy)pyridazin-3-yl)-1-((tetrahydrofuran-2-yl)methyl)piperazin-2-one]

Ki ([1]; read-out: α5-GABAAR Ki): 1.33 nM
inhibition at 0.1 µM [2]: 47.2%
SMILES: Cc1nnn(-c2ccc(C(F)F)cc2)c1COc1ccc(N2CCN(Cc3ccccn3)C(=O)C2)nn1 [Example 60, 4-(6-((1-(4-(Difluoromethyl)phenyl)-4-methyl-1H-1,2,3-triazol-5-yl)methoxy)pyridazin-3-yl)-1-(pyridin-2-ylmethyl)piperazin-2-one]

Ki ([1]; read-out: α5-GABAAR Ki): 1.15 nM
inhibition at 0.1 µM [2]: 43.9%
SMILES: Cc1nnn(-c2ccc(C(F)F)cc2)c1COc1ccc(N2CC(C(=O)Nc3ccn(C)n3)C2)nn1 [Example 101, 1-(6-((1-(4-(Difluoromethyl)phenyl)-4-methyl-1H-1,2,3-triazol-5-yl)methoxy)pyridazin-3-yl)-N-(1-methyl-1H-pyrazol-3-yl)azetidine-3-carboxamide]

Ki ([1]; read-out: α5-GABAAR Ki): 1.1 nM
inhibition at 0.1 µM [2]: 49.7%
SMILES: Cc1nnn(-c2ccc(C(F)F)cc2)c1COc1ccc(N2CC(=O)N3CCN(Cc4ncccn4)CC3C2)nn1 (centres unmarked) [Example 92, 2-(6-((1-(4-(Difluoromethyl)phenyl)-4-methyl-1H-1,2,3-triazol-5-yl)methoxy)pyridazin-3-yl)-8-(pyrimidin-2-ylmethyl)octahydro-4H-pyrazino[1,2-a]pyrazin-4-one]

Ki ([1]; read-out: α5-GABAAR Ki): 0.9 nM
inhibition at 0.1 µM [2]: 55.1%
SMILES: Cc1nnn(-c2ccc(C(F)F)cc2)c1COc1ccc(N2CC(=O)N3CCN(C)CC3C2)nn1 (centres unmarked) [Example 69, 2-(6-((1-(4-(Difluoromethyl)phenyl)-4-methyl-1H-1,2,3-triazol-5-yl)methoxy)pyridazin-3-yl)-8-methylhexahydro-1H-pyrazino[1,2-a]pyrazin-4(6H)-one]

Ki ([1]; read-out: α5-GABAAR Ki): 0.75 nM
inhibition at 0.1 µM [2]: 49.2%
SMILES: Cc1nnn(-c2ccc(C(F)F)cc2)c1COc1ccc(C2=CCCOC2)nn1 [Example 90, 3-((1-(4-(Difluoromethyl)phenyl)-4-methyl-1H-1,2,3-triazol-5-yl)methoxy)-6-(5,6-dihydro-2H-pyran-3-yl)pyridazine]
